Reference: patent US9888679B2, “Protection of progenitor cells and regulation of their differentiation” (Proteobioactives Pty Ltd, priority 2007, dated 2018)

Columns and labels:
Format in all cases: cell-based
[1] = tested on: murine Progenitor Cells (C3H10T1/2 cells); experiment: DNA synthesis (3H-Thymidine) in 2 day monolayer cultures; details: murine progenitor cell line, FIG. 10
From the text: FIG. 10. A bar graph of the concentration dependent effects of Pentosan Polysulfate (PPS) on DNA synthesis by murine Progenitor Cells (C3H10T1/2 cells) grown in monolayer cultures for 2 days as determined by the incorporation of ^3H-Thymidine into macromolecular DNA.

human progenitor cells = experiment: Type II collagen immunostaining of micromass cultures, 10 days; details: FIG. 18
Method: FIG. 18. A: Bar graph showing the Pentosan Polysulfate (PPS) concentration dependent stimulation of type II collagen production by human progenitor cells in micromass cultures for 10 days as determined by scanning and digital analysis of the immuno stained micromass cultures shown in B. (see text for details).
Micromass cultures of progenitor cells were established in 24-well culture plates at a starting density of 8×10^4 cells/micromass in 1 ml of DMEM (+10% FBS) with/without various concentrations of Pentosan Polysulfate as described above. On Day-5 and Day-10 of culture, media was removed and cultures were fixed with Histochoice MB (Amresco, Solon, Ohio, USA) for 20-30 min at RT. The fixed cultures were washed twice in PBS (5 min each time); […] then washed in PBS for 5 min. […]. After rinsing, first with a gentle stream of PBS, followed by washing 3 times (5 min each time) with PBS, the wells were blocked with […] rinsing with a gentle stream of PBS then 3×washing (5 min each time) with PBS, to each micromass culture was added 200 μl of 1× (BCIP/Buffer+NBT) and the plates incubated in the reaction was stopped when the purple color first became established in the section by washing in running water. Plates and wells were then photographed with a digital camera and the images analysed by using Image J® software (http://rsb.info.nih.gov/ij/) on a personal computer.

[2] = tested on: murine ATDC5 progenitor cells; experiment: Proteoglycan biosynthesis (35S-GAG) in monolayer cultures, maintenance or differentiation media
From the text: (§1) FIG. 21. A bar graph of the concentration dependent effects of rhNC4 (batch PBA-1202P) expressed by K. lactis, in the absence (maintenance media, MM) and presence of insulin (10 micrograms/mL) (differentiation media, DM), on the biosynthesis of Proteoglycans (PGs) as determined by the incorporation of radioactively labelled sulfate into the sulfated glycosaminoglycans (^35S-GAG) of PGs after 3 day culture with Murine ATDC5 progenitor cells. The data was expressed as % change relative to control cultures that contained no rhNC4. P<0.05 was statistically significant relative to control cultures.
FIG. 24. A bar graph of the concentration dependent effects of combinations of rhNC4 (batch PBA-1202P) and Pentosan Polysulfate (PPS) on the biosynthesis of 35S-PGs by monolayer cultures of Murine ATDC5 progenitor cells. Data is expressed relative to control (maintenance media, MM) which was taken as 100%.
as §1, with “31.” for “21.”
FIG. 32. A bar graph of the concentration dependent effects of Pentosan Polysulfate (PPS), in the presence of insulin (10 micrograms/mL), on the biosynthesis of Proteoglycans PGs) as determined by the incorporation of radioactively labelled sulfate into the sulfated glycosaminoglycans (^35S-GAG) of PGs after 3 day culture with Murine ATDC5 progenitor cells. The data was expressed as ^35S-GAG radioactivity as counts per minute (CPM) and decays per minute (DPM) relative to control cultures that contained no PPS. P<0.05 was statistically significant relative to control cultures.
Murine Progenitor cells (cell lines C3H10T1/2 or ATDC5) purchased from RIKEN Cell Bank (Tsukuba, Japan) or human immunoselected Stro-1+ Progenitor cells (Mesoblast Ltd, Melbourne, Australia) were seeded into 50 mL plastic culture flasks containing 1:1 high glucose DMEM/Ham's F-12 medium (Invitrogen) supplemented with 10% FBS (Sigma) and incubated at 37° C., in 5% CO2. […] The experiments were generally terminated after 48 hours incubation when proteoglycan biosynthesis was determined by measuring the incorporation of ^35SO4 into the glycosaminoglycans (^35S-GAGs) as described below.
The data was expressed as % change relative to control cultures that contained no rhNC4. […]

Substance: pentosan polysulfate [PPS]
- cell division (3H-Thymidine incorporation into DNA) [1]: Marked stimulation of cell division
- Type II Collagen production (human progenitor cells; 0.5-10 μg/ml, 10 days): Increased Type II Collagen production
- type II collagen staining (human progenitor cells; 1-10 micrograms/mL for 10 days): intense type II collagen staining
- concentration giving maximum type II collagen levels (human progenitor cells; 10 day micromass): 5 µg/mL
- PG synthesis ([2]; PPS in the presence of insulin (10 micrograms/mL), 3 day culture, FIG. 32): concentration dependent stimulation of PG synthesis
- biosynthesis of 35S-PGs ([2]; PPS, monolayer, FIG. 24): effect of PPS increases with concentration
